One assay has as its target T1, MDM2 (Homo sapiens, UniProt Q00987).
T1 construct: made in house
The assay can be described thus: Inhibition test of MDM2-P53 (GST-MDM2, Biotin-P53, Anti-GST-Tb, SA-XL665). Format: binding. Summed up: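 Compounds, serially diluted 5-fold (twelve concentrations), were shaken for 90 min at 25° C with a mix of GST-MDM2 (4 nM final), Biotin-P53, anti-GST-Tb and SA-XL665. Buffer: 1×PBS, 0.1% BSA, 5 mM DTT, 1 mM AEBSF; signal read on a microplate reader.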

For assay [1], the system named is human osteosarcoma cell line SJSA-1. The assay can be described thus: Inhibition of proliferation of human osteosarcoma cell line SJSA-1 (DAPI staining, In Cell Analyzer). The following applies: Homo sapiens, SJSA-1, 72 h, read-out: IC50 (nM), inhibitory activity on proliferation of human osteosarcoma cell line SJSA-1, SJSA-1, incubated 72 h.

Experimental findings from patent publication US11339171B2, “MDM2 inhibitors” (Gan & Lee Pharmaceuticals, priority 2017, dated 2022) are described below.

T1 sequence (Q00987 whole entry): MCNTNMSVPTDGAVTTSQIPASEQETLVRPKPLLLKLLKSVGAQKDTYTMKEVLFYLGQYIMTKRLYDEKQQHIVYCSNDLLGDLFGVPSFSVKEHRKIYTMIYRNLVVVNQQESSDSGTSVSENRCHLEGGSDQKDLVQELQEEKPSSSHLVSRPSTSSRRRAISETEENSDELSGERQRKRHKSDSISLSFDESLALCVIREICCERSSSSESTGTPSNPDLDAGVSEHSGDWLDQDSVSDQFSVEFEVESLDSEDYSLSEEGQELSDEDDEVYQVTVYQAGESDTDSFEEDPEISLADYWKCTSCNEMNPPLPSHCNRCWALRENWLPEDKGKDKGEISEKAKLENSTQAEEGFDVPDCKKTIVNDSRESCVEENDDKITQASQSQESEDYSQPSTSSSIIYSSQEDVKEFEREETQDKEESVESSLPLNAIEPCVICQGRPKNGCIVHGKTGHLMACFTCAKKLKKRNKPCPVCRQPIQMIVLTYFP

Turning to `COc1cc(OC)c(-c2nc3c(n2C(C)C)[C@@]2(C(=O)Nc4cc(Cl)ccc42)N(c2cc(Cl)ccc2C)C3=O)cc1F` [Example S-92, (S)-6-chloro-5′-(5-chloro-2-methylphenyl)-2′-(5-fluoro-2,4-dimethoxyphenyl)-3′-isopropyl-3′H-spiro[dihydroindole-3,4′-pyrrolo[3,4-d]imidazole]-2,6′(5′H)-dione], the IC50 worked out at 1.72 nM at MDM2 and 19.9 nM in assay [1].
The matching figures for `CCOc1ccc(-c2nc3c(n2C(C)C)[C@@]2(C(=O)Nc4cc(Cl)ccc42)N(c2cc(Cl)ccc2F)C3=O)c(OC)c1` [Example S-94, (S)-6-chloro-5′-(5-chloro-2-fluorophenyl)-2′-(4-ethoxy-2-methoxyphenyl)-3′-isopropyl-3′H-spiro[dihydroindole-3,4′-pyrrolo[3,4-d]imidazole]-2,6′(5′H)-dione]: 4.72 nM and 309 nM.
The matching figures for `COc1cc(OC(C)C)ncc1-c1nc2c(n1C(C)C)[C@@]1(C(=O)Nc3cc(Cl)ccc31)N(c1cccc(Cl)c1)C2=O` [Example S-95, (S)-6-chloro-5′-(3-chlorophenyl)-2′-(6-isopropoxy-4-methoxypyridin-3-yl)-3′-isopropyl-3′H-spiro[dihydroindole-3,4′-pyrrolo[3,4-d]imidazole]-2,6′(5′H)-dione]: 1.92 nM and 49.5 nM.
With `CCOc1ncc(-c2nc3c(n2C(C)C)[C@@]2(C(=O)Nc4cc(Cl)ccc42)N(c2cc(Cl)ccc2F)C3=O)c(OC)n1` [Example S-97, (S)-6-chloro-5′-(5-chloro-2-fluorophenyl)-2′-(2-ethoxy-4-methoxypyrimidin-5-yl)-3′-isopropyl-3′H-spiro[dihydroindole-3,4′-pyrrolo[3,4-d]imidazole]-2,6′(5′H)-dione], the IC50 on MDM2 worked out at 3.94 nM; in assay [1], 167 nM.
The matching figures for `CCN(C)c1ccc(-c2nc3c(n2C(C)C)[C@@]2(C(=O)Nc4cc(Cl)ccc42)N(c2cc(Cl)ccc2C)C3=O)c(OC)c1` [Example S-99, (S)-6-chloro-5′-(5-chloro-2-methylphenyl)-2′-(4-(ethyl(methyl)amino)-2-methoxyphenyl)-3′-isopropyl-3′H-spiro[dihydroindole-3,4′-pyrrolo[3,4-d]imidazole]-2,6′(5′H)-dione]: 2.56 nM and 34.2 nM.
The matching figures for `CCOc1ccc(-c2nc3c(n2C(C)C)[C@@]2(C(=O)Nc4cc(Cl)ccc42)N(c2cccc(Cl)c2)C3=O)c(OC)c1` [Example S-100, (S)-6-chloro-5′-(3-chlorophenyl)-2′-(4-ethoxy-2-methoxyphenyl)-3′-isopropyl-3′H-spiro[dihydroindole-3,4′-pyrrolo[3,4-d]imidazole]-2,6′(5′H)-dione]: 3.14 nM and 1210 nM.
For `COc1cc(C(C)(C)C)ccc1-c1nc2c(n1C(C)C)[C@@]1(C(=O)Nc3cc(Cl)ccc31)N(c1cc(Cl)ccc1C)C2=O` [Example S-101, (S)-2′-(4-(tert-butyl)-2-methoxyphenyl)-6-chloro-5′-(5-chloro-2-methylphenyl)-3′-isopropyl-3′H-spiro[dihydroindole-3,4′-pyrrolo[3,4-d]imidazole]-2,6′(5′H)-dione], in that order: 9.86 nM and 48.5 nM.
`CCOc1cc(OC)c(-c2nc3c(n2C(C)C)[C@@]2(C(=O)Nc4cc(Cl)ccc42)N(c2cccc(Cl)c2)C3=O)cn1` [Example S-102, (S)-6-chloro-5′-(3-chlorophenyl)-2′-(6-ethoxy-4-methoxypyridin-3-yl)-3′-isopropyl-3′H-spiro[dihydroindole-3,4′-pyrrolo[3,4-d]imidazole]-2,6′(5′H)-dione]: the IC50 at MDM2 stood at 2.01 nM; in assay [1], 57.4 nM.
Regarding `COc1cc(N(C)C)ccc1-c1nc2c(n1C(C)C)[C@@]1(C(=O)Nc3cc(Cl)ccc31)N(c1cccc(Cl)c1)C2=O` [Example S-104, (S)-6-chloro-5′-(3-chlorophenyl)-2′-(4-(dimethylamino)-2-methoxyphenyl)-3′-isopropyl-3′H-spiro[dihydroindole-3,4′-pyrrolo[3,4-d]imidazole]-2,6′(5′H)-dione], the IC50 is 2.26 nM on MDM2 and 266 nM in assay [1].
For `CCN(CC)c1ccc(-c2nc3c(n2C(C)C)[C@@]2(C(=O)Nc4cc(Cl)ccc42)N(c2cc(Cl)ccc2C)C3=O)c(OC)c1` [Example S-105, (S)-6-chloro-5′-(5-chloro-2-methylphenyl)-2′-(4-(diethylamino)-2-methoxyphenyl)-3′-isopropyl-3′H-spiro[dihydroindole-3,4′-pyrrolo[3,4-d]imidazole]-2,6′(5′H)-dione], in that order: 11.2 nM and 243 nM.
The matching figures for `COc1cc(C2CC2)ncc1-c1nc2c(n1C(C)C)[C@@]1(C(=O)Nc3cc(Cl)ccc31)N(c1cccc(Cl)c1)C2=O` [Example S-106, (S)-6-chloro-5′-(3-chlorophenyl)-2′-(6-cyclopropyl-4-methoxypyridin-3-yl)-3′-isopropyl-3′H-spiro[dihydroindole-3,4′-pyrrolo[3,4-d]imidazole]-2,6′(5′H)-dione]: 2.59 nM and 33.5 nM.
The matching figures for `CCc1ccc(-c2nc3c(n2C(C)C)[C@@]2(C(=O)Nc4cc(Cl)ccc42)N(c2cccc(Cl)c2)C3=O)c(OC)c1` [Example S-107, (S)-6-chloro-5′-(3-chlorophenyl)-2′-(4-ethyl-2-methoxyphenyl)-3′-isopropyl-3′H-spiro[dihydroindole-3,4′-pyrrolo[3,4-d]imidazole]-2,6′(5′H)-dione]: 4.55 nM and 115 nM.
For the molecule `COc1cc(C2CC2)cc(OC)c1-c1nc2c(n1C(C)C)[C@@]1(C(=O)Nc3cc(Cl)ccc31)N(c1cc(Cl)ccc1C)C2=O` [Example S-108, (S)-6-chloro-5′-(5-chloro-2-methylphenyl)-2′-(4-cyclopropyl-2,6-dimethoxyphenyl)-3′-isopropyl-3′H-spiro[dihydroindole-3,4′-pyrrolo[3,4-d]imidazole]-2,6′(5′H)-dione], the IC50 was 8.87 nM at MDM2 and 28.8 nM in assay [1].
With `COc1cc(C)ccc1-c1nc2c(n1C(C)C)[C@@]1(C(=O)Nc3cc(Cl)ccc31)N(c1cccc(Cl)c1)C2=O` [Example S-109, (S)-6-chloro-5′-(3-chlorophenyl)-3′-isopropyl-2′-(2-methoxy-4-methylphenyl)-3′H-spiro[dihydroindole-3,4′-pyrrolo[3,4-d]imidazole]-2,6′(5′H)-dione], the IC50 at MDM2 came out at 2.34 nM; in assay [1] it was 54.6 nM.
As for `COc1cc(OC2CC2)ncc1-c1nc2c(n1C(C)C)[C@@]1(C(=O)Nc3cc(Cl)ccc31)N(c1cc(Cl)ccc1C)C2=O` [Example S-110, (S)-6-chloro-5′-(5-chloro-2-methylphenyl)-2′-(6-cyclopropoxy-4-methoxypyridin-3-yl)-3′-isopropyl-3′H-spiro[dihydroindole-3,4′-pyrrolo[3,4-d]imidazole]-2,6′(5′H)-dione], the IC50 turned out to be 1.6 nM on MDM2 and 78 nM in assay [1].
The matching figures for `COc1cc(N(C)C)ncc1-c1nc2c(n1C(C)C)[C@@]1(C(=O)Nc3cc(Cl)ccc31)N(c1cc(Cl)ccc1C)C2=O` [Example S-111, (S)-6-chloro-5′-(5-chloro-2-methylphenyl)-2′-(6-(dimethylamino)-4-methoxypyridin-3-yl)-3′-isopropyl-3′H-spiro[dihydroindole-3,4′-pyrrolo[3,4-d]imidazole]-2,6′(5′H)-dione]: 1.52 nM and 13 nM.
With `COc1nc(N(C)C)ncc1-c1nc2c(n1C(C)C)[C@@]1(C(=O)Nc3cc(Cl)ccc31)N(c1cccc(Cl)c1)C2=O` [Example S-112, (S)-6-chloro-5′-(3-chlorophenyl)-2′-(2-(dimethylamino)-4-methoxypyrimidin-5-yl)-3′-isopropyl-3′H-spiro[dihydroindole-3,4′-pyrrolo[3,4-d]imidazole]-2,6′(5′H)-dione], the IC50 against MDM2 is 1.15 nM; in assay [1], 90.6 nM.
For `COc1cc(N(C)C)ncc1-c1nc2c(n1C(C)C)[C@@]1(C(=O)Nc3cc(Cl)ccc31)N(c1cccc(Cl)c1)C2=O` [Example S-113, (S)-6-chloro-5′-(3-chlorophenyl)-2′-(6-(dimethylamino)-4-methoxypyridin-3-yl)-3′-isopropyl-3′H-spiro[dihydroindole-3,4′-pyrrolo[3,4-d]imidazole]-2,6′(5′H)-dione], the IC50 against MDM2 stood at 1.25 nM; in assay [1], 26.7 nM.
The matching figures for `COc1nc(N2CCCC2)ncc1-c1nc2c(n1C(C)C)[C@@]1(C(=O)Nc3cc(Cl)ccc31)N(c1cc(Cl)ccc1C)C2=O` [Example S-114, (S)-6-chloro-5′-(5-chloro-2-methylphenyl)-3′-isopropyl-2′-(4-methoxy-2-(pyrrolidine-1-yl)pyrimidin-5-yl)-3′H-spiro[dihydroindole-3,4′-pyrrolo[3,4-d]imidazole]-2,6′(5′H)-dione]: 3.2 nM and 10.1 nM.
Regarding `COc1cc(C2CC2)ccc1-c1nc2c(n1C(C)C)[C@@]1(C(=O)Nc3cc(Cl)ccc31)N(c1cccc(Cl)c1)C2=O` [Example S-116, (S)-6-chloro-5′-(3-chlorophenyl)-2′-(4-cyclopropyl-2-methoxyphenyl)-3′-isopropyl-3′H-spiro[dihydroindole-3,4′-pyrrolo[3,4-d]imidazole]-2,6′(5′H)-dione], the IC50 was found to be 4.18 nM on MDM2 and 213 nM in assay [1].
For the molecule `COc1nc(N2CCC2)ncc1-c1nc2c(n1C(C)C)[C@@]1(C(=O)Nc3cc(Cl)ccc31)N(c1cc(Cl)ccc1C)C2=O` [Example S-117, (S)-2′-(2-(12zetidine-1-yl)-4-methoxypyrimidin-5-yl)-6-chloro-5′-(5-chloro-2-methylphenyl)-3′-isopropyl-3′H-spiro[dihydroindole-3,4′-pyrrolo[3,4-d]imidazole]-2,6′(5′H)-dione], the IC50 at MDM2 was found to be 2.15 nM; in assay [1] it was 14.4 nM.
